Measurements: ChEMBL document CHEMBL1201862, “PubChem BioAssay data set” (2004)
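Growth conditions: 96-well plates. Treatment: test compound, 48 hours, 5 concentrations. Analysis: linear interpolation between bracketing concentrations; unreached endpoints set to highest concentration. Abbreviation: GI50, concentration required for 50% inhibition of growth.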 The source made the active and inactive calls. No stated cut-off is given here; in the data, active = GI50 up to about 1.1 µM and inactive = higher. Square brackets hold non-standard residues; d marks the D form. Peptide text beside a SMILES is read from it. * marks the point of attachment. ξ: configuration not given here. Propanoyl(3-(4-MeO-Ph)) = COc1ccc(CCC(=O)*)cc1; Thr(3ξ) = CC(O)[C@H](N)C(=O)O; dNMeL = CN[C@H](CC(C)C)C(=O)O; ξLac = CC(O)C(=O)O

Assays:
Assay in all cases: NCI anticancer screen, dose series, 48 h
[1] = system: UO-31
[2] = system: SK-MEL-5
[3] = system: A549
[4] = system: SK-MEL-28
[5] = system: KM-20L2
[6] = system: HCT-15
[7] = system: SNB-75
[8] = system: OVCAR-5
[9] = system: IGROV-1
[10] = system: SF-268
[11] = system: KM12
[12] = system: HOP-62
[13] = system: SK-MEL-2
[14] = system: ACHN
[15] = system: NCI-H522
[16] = system: HOP-92
[17] = system: PC-3
[18] = system: BT-549
[19] = system: Hs-578T
[20] = system: RXF 393

For O=C1C(Cl)=C(Cl)C(=O)N1c1ccc(Cl)c(Cl)c1Cl, the GI50 [1] was > 100 µM (inactive), the GI50 [2] was > 100 µM (inactive) and the GI50 [3] was > 100 µM (inactive). The GI50 [4] was > 100 µM (inactive), the GI50 [5] was > 100 µM (inactive) and the GI50 [6] was 31.1 µM. For the same compound, the GI50 [7] was > 100 µM (inactive), the GI50 [8] was > 100 µM (inactive) and the GI50 [9] was > 100 µM (inactive). For the same compound, the GI50 [10] was 38 µM (inactive), the GI50 [11] was > 100 µM (inactive) and the GI50 [12] was > 100 µM (inactive). For the same compound, the GI50 [13] was > 100 µM (inactive), the GI50 [14] was 75 µM (inactive) and the GI50 [15] was 14.4 µM (inactive). For the same compound, the GI50 [16] was 24.7 µM (inactive).
Cc1cc(/N=C/c2ccc(F)cc2)n(-c2ccccc2)n1 was tested, and the GI50 [1] was > 100 µM (inactive), the GI50 [2] was 52.5 µM (inactive) and the GI50 [3] was 92 µM (inactive). For the same compound, the GI50 [4] was > 100 µM (inactive), the GI50 [6] was 48.2 µM and the GI50 [17] was > 100 µM (inactive). For the same compound, the GI50 [7] was 56.1 µM (inactive), the GI50 [18] was 85.1 µM (inactive) and the GI50 [8] was > 100 µM (inactive). The GI50 [9] was 84.3 µM (inactive), the GI50 [10] was > 100 µM (inactive) and the GI50 [11] was 51.8 µM (inactive). The GI50 [12] was > 100 µM (inactive), the GI50 [13] was > 100 µM (inactive) and the GI50 [14] was > 100 µM (inactive). The GI50 [19] was > 100 µM (inactive), the GI50 [15] was 39.1 µM (inactive) and the GI50 [20] was 47.9 µM (inactive). The GI50 [16] was 89.1 µM (inactive).
For NC(=O)COc1ccc(Br)cc1Br, the GI50 [1] was > 100 µM (inactive), the GI50 [2] was > 100 µM (inactive) and the GI50 [3] was > 100 µM (inactive). For the same compound, the GI50 [4] was > 100 µM (inactive), the GI50 [5] was > 100 µM (inactive) and the GI50 [6] was > 100 µM. The GI50 [7] was 52.1 µM (inactive), the GI50 [8] was > 100 µM (inactive) and the GI50 [9] was > 100 µM (inactive). For the same compound, the GI50 [10] was > 100 µM (inactive), the GI50 [11] was 85.3 µM (inactive) and the GI50 [12] was > 100 µM (inactive). For the same compound, the GI50 [13] was > 100 µM (inactive), the GI50 [14] was > 100 µM (inactive) and the GI50 [15] was > 100 µM (inactive). The GI50 [16] was > 100 µM (inactive).
CCCCCCCCCC[C@H](O)[C@H](O)CC[C@@H](O)[C@H]1CC[C@@H]([C@H]2CC[C@H](CCCCCCC[C@@H](O)CC3=C[C@H](C)OC3=O)O2)O1 was tested, and the GI50 [1] was 1.22 µM (inactive), the GI50 [2] was 1.06 µM (active) and the GI50 [3] was 1.84 µM (inactive). For the same compound, the GI50 [4] was 2.41 µM (inactive), the GI50 [6] was 3.87 µM and the GI50 [17] was 2.23 µM (inactive). The GI50 [7] was 2.41 µM (inactive), the GI50 [18] was 37.5 µM (inactive) and the GI50 [8] was 6.28 µM (inactive). The GI50 [9] was 2.72 µM (inactive), the GI50 [10] was 2.15 µM (inactive) and the GI50 [11] was 2.22 µM (inactive). For the same compound, the GI50 [12] was 2.42 µM (inactive), the GI50 [13] was 1.72 µM (inactive) and the GI50 [14] was 17.4 µM (inactive). The GI50 [19] was 2.79 µM (inactive), the GI50 [15] was 15.1 µM (inactive) and the GI50 [20] was 4.48 µM (inactive). The GI50 [16] was 6.32 µM (inactive).
For CC1(C)OC(C[C@]2(C#N)C[C@H](CCl)OC(C)(C)O2)C[C@@H](C[C@]2(C#N)C[C@H](CCl)OC(C)(C)O2)O1 (stereo partly specified), the GI50 [2] was 51.6 µM (inactive), the GI50 [3] was > 100 µM (inactive) and the GI50 [4] was > 100 µM (inactive). The GI50 [5] was > 100 µM (inactive), the GI50 [6] was > 100 µM and the GI50 [7] was > 100 µM (inactive). The GI50 [8] was > 100 µM (inactive), the GI50 [9] was > 100 µM (inactive) and the GI50 [10] was > 100 µM (inactive). The GI50 [11] was > 100 µM (inactive), the GI50 [12] was > 100 µM (inactive) and the GI50 [13] was > 100 µM (inactive). The GI50 [14] was > 100 µM (inactive), the GI50 [15] was > 100 µM (inactive) and the GI50 [16] was > 100 µM (inactive).
In the case of CC(C)(CN)CN, the GI50 [1] is reported as > 100 µM (inactive), the GI50 [2] is reported as > 100 µM (inactive) and the GI50 [3] is reported as > 100 µM (inactive). For the same compound, the GI50 [4] was > 100 µM (inactive), the GI50 [6] was > 100 µM and the GI50 [17] was > 100 µM (inactive). For the same compound, the GI50 [7] was > 100 µM (inactive), the GI50 [18] was > 100 µM (inactive) and the GI50 [8] was > 100 µM (inactive). The GI50 [9] was > 100 µM (inactive), the GI50 [10] was > 100 µM (inactive) and the GI50 [11] was > 100 µM (inactive). The GI50 [12] was > 100 µM (inactive), the GI50 [13] was > 100 µM (inactive) and the GI50 [14] was > 100 µM (inactive). The GI50 [19] was > 100 µM (inactive), the GI50 [15] was > 100 µM (inactive) and the GI50 [20] was > 100 µM (inactive). For the same compound, the GI50 [16] was > 100 µM (inactive).
For CSc1ccc2c(cc1=O)[C@@H](NC(=O)c1cc(O)c(O)c(O)c1)CCc1cc(O)c(O)c(O)c1-2, the GI50 [1] was 25.9 µM (inactive), the GI50 [2] was 19.8 µM (inactive) and the GI50 [3] was 27.7 µM (inactive). The GI50 [4] was 32.3 µM (inactive), the GI50 [5] was 68.7 µM (inactive) and the GI50 [6] was 20.2 µM. The GI50 [7] was 23.4 µM (inactive), the GI50 [8] was 15 µM (inactive) and the GI50 [10] was 37.4 µM (inactive). For the same compound, the GI50 [11] was 20.9 µM (inactive), the GI50 [12] was 49.5 µM (inactive) and the GI50 [14] was 34.1 µM (inactive). The GI50 [15] was 21.4 µM (inactive).
In the case of COC(=O)[C@@H](NC(=O)[C@@H](CC(C)C)N(C)C(=O)[C@@H]1CCCN1C(=O)C(C)O)C(C)OC(=O)CCc1ccc(OC)cc1 (stereo partly specified) (H-[ξLac]P[dNMeL][Thr(3ξ)](Propanoyl(3-(4-MeO-Ph)))-OMe), the GI50 [1] is reported as > 100 µM (inactive), the GI50 [2] is reported as > 100 µM (inactive) and the GI50 [3] is reported as > 100 µM (inactive). The GI50 [4] was > 100 µM (inactive), the GI50 [6] was > 100 µM and the GI50 [17] was > 100 µM (inactive). The GI50 [7] was > 100 µM (inactive), the GI50 [18] was > 100 µM (inactive) and the GI50 [8] was > 100 µM (inactive). For the same compound, the GI50 [9] was > 100 µM (inactive), the GI50 [10] was > 100 µM (inactive) and the GI50 [11] was > 100 µM (inactive). For the same compound, the GI50 [12] was > 100 µM (inactive), the GI50 [13] was > 100 µM (inactive) and the GI50 [14] was > 100 µM (inactive). The GI50 [19] was > 100 µM (inactive), the GI50 [15] was > 100 µM (inactive) and the GI50 [20] was > 100 µM (inactive). The GI50 [16] was > 100 µM (inactive).
